# Measured values: ChEMBL document CHEMBL3046842, “Antimicrobial and insect antifeedant activities of some Trogers bases” (2012)
# The source made the active and inactive calls.
# Tests used:
# Aspergillus niger = test: Antifungal activity against Aspergillus niger at 50 ug/ml after 72 hrs by disc diffusion method; assay type: functional, organism-based
# Penicillium = test: Antifungal activity against Penicillium at 50 ug/ml after 72 hrs by disc diffusion method; assay type: functional, organism-based
# Candida albicans = test: Antifungal activity against Candida albicans at 250 ug/ml after 72 hrs by disc diffusion method; assay type: functional; settings: for zone of inhibition at 250 µg/mL: read-out: IZ
# Enterococcus faecalis = test: Antibacterial activity against Enterococcus faecalis at 250 ug/ml after 24 to 45 hrs by disc diffusion method; assay type: functional; settings: for zone of inhibition at 250 µg/mL: read-out: IZ
# Proteus vulgaris = test: Antibacterial activity against Proteus vulgaris at 250 ug/ml after 24 to 45 hrs by disc diffusion method; assay type: functional; settings: for zone of inhibition at 250 µg/mL: read-out: IZ
# Klebsiella pneumoniae = test: Antibacterial activity against Klebsiella pneumoniae at 250 ug/ml after 24 to 45 hrs by disc diffusion method; assay type: functional; settings: read-out: IZ
# Pseudomonas = test: Antibacterial activity against Pseudomonas at 250 ug/ml after 24 to 45 hrs by disc diffusion method; assay type: functional; settings: read-out: IZ
# Staphylococcus aureus = test: Antibacterial activity against Staphylococcus aureus at 250 ug/ml after 24 to 45 hrs by disc diffusion method; assay type: functional; settings: read-out: IZ
# Escherichia coli = test: Antibacterial activity against Escherichia coli at 250 ug/ml after 24 to 45 hrs by disc diffusion method; assay type: functional; settings: read-out: IZ
Compound,Activity (Aspergillus niger),Activity (Penicillium),zone of inhibition at 250 µg/mL (Candida albicans),Activity (Enterococcus faecalis),zone of inhibition at 250 µg/mL (Proteus vulgaris),zone of inhibition at 250 µg/mL (Klebsiella pneumoniae),zone of inhibition at 250 µg/mL (Pseudomonas),zone of inhibition at 250 µg/mL (Staphylococcus aureus),zone of inhibition at 250 µg/mL (Escherichia coli),zone of inhibition at 250 µg/mL (Enterococcus faecalis),Activity (Candida albicans),Activity (Proteus vulgaris)
Cc1cc(Br)c2c(c1)CN1CN2Cc2cc(C)cc(Br)c21,inactive,inactive,8 mm,inactive,13 mm,13 mm,13 mm,13 mm,13 mm,–,–,–
Cc1cc([N+](=O)[O-])cc2c1N1Cc3cc([N+](=O)[O-])cc(C)c3N(C2)C1,inactive,inactive,13 mm,–,13 mm,13 mm,13 mm,13 mm,13 mm,8 mm,–,–
Cc1cc(N)c2c(c1)CN1CN2Cc2cc(C)cc(N)c21,inactive,Active,13 mm,inactive,13 mm,13 mm,13 mm,13 mm,13 mm,–,–,–
Cc1cc(N)cc2c1N1Cc3cc(N)cc(C)c3N(C2)C1,inactive,inactive,13 mm,–,13 mm,13 mm,13 mm,13 mm,13 mm,8 mm,–,–
COc1cc(C)c2c(c1)CN1CN2Cc2cc(OC)cc(C)c21,inactive,Active,20 mm,–,8 mm,20 mm,20 mm,20 mm,20 mm,13 mm,–,–
CCOC(=O)c1ccc2c(c1)CN1CN2Cc2cc(C(=O)OCC)ccc21,inactive,inactive,–,–,13 mm,13 mm,20 mm,20 mm,20 mm,20 mm,inactive,–
Cc1cccc2c1N1Cc3cccc(C)c3N(C2)C1,inactive,inactive,13 mm,–,8 mm,13 mm,13 mm,8 mm,8 mm,13 mm,–,–
Cc1ccc2c(c1C)N1Cc3ccc(C)c(C)c3N(C2)C1,inactive,Active,8 mm,–,–,13 mm,8 mm,8 mm,13 mm,8 mm,–,inactive
CCCOC(=O)c1ccc2c(c1)CN1CN2Cc2cc(C(=O)OCCC)ccc21,Active,Active,13 mm,–,13 mm,20 mm,20 mm,20 mm,13 mm,20 mm,–,–
c1ccc2c(c1)CN1CN2Cc2ccccc21,inactive,inactive,–,inactive,8 mm,8 mm,8 mm,13 mm,8 mm,–,inactive,–
COc1ccc2c(c1)CN1CN2Cc2cc(OC)ccc21,inactive,Active,20 mm,–,13 mm,13 mm,20 mm,20 mm,20 mm,20 mm,–,–
Cc1cc(C)c2c(c1)CN1CN2Cc2cc(C)cc(C)c21,inactive,inactive,13 mm,–,13 mm,13 mm,8 mm,13 mm,13 mm,8 mm,–,–
Cc1cc(C#N)c2c(c1)CN1CN2Cc2cc(C)cc(C#N)c21,inactive,inactive,13 mm,inactive,8 mm,8 mm,8 mm,8 mm,13 mm,–,–,–
CCOc1ccc2c(c1)CN1CN2Cc2cc(OCC)ccc21,Active,Active,8 mm,inactive,13 mm,13 mm,20 mm,20 mm,20 mm,–,–,–
Cc1cc2c(cc1Br)N1Cc3cc(C)c(Br)cc3N(C2)C1,inactive,inactive,13 mm,–,8 mm,8 mm,8 mm,13 mm,8 mm,13 mm,–,–
Cc1ccc2c(c1)CN1CN2Cc2cc(C)ccc21,inactive,inactive,13 mm,inactive,8 mm,8 mm,8 mm,13 mm,8 mm,–,–,–
Cc1ccc2c(c1O)CN1CN2Cc2c1ccc(C)c2O,inactive,inactive,13 mm,–,8 mm,8 mm,8 mm,13 mm,8 mm,13 mm,–,–
O=[N+]([O-])c1ccc2c(c1)CN1CN2Cc2cc([N+](=O)[O-])ccc21,inactive,inactive,–,–,13 mm,13 mm,13 mm,13 mm,20 mm,20 mm,inactive,–
CC(=O)c1cccc2c1N1Cc3cccc(C(C)=O)c3N(C2)C1,Active,inactive,20 mm,inactive,8 mm,8 mm,8 mm,13 mm,8 mm,–,–,–
